Active and inactive are the calls of the source. The rule behind the calls is not given here.
System: Nucleic Acid
Assay: DNA binding/cleaving affinity was determined; Active
Format: nucleic-acid assay

Activity | Substance
Active | Complex of [SalenMn(III)]+ (Salen=N,N'-ethylenebis(salicylideneaminato))
Active | [TMPPMn(III)] 5+ (TMPP=meso-tetrakis(4-N-methylpyridiniumyl)porphyrinato))
